This passage reports carcinogen call results from PubChem BioAssay AID1259411 (Chemical Carcinogenesis Research Information System (CCRIS), 2018).

The data set deals with rodent carcinogenicity bioassays, tumor incidence. Description: CCRIS carcinogenicity studies. Put shortly: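 NCI-built, expert-reviewed records of carcinogenicity and related test outcomes (mutagenicity, tumor promotion/inhibition) compiled from published and report sources, historical span 1985-2011, not updated.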

Active and inactive are the calls of the source. The rule behind the calls is not given here.

`Cc1ccc(N)c(C)c1`: the carcinogen call (Species: MOUSE, Strain/Sex: CD-1/FEMALE, Route: ORAL, Tumor Site: Type of Lesion: LUNG) was “active; positive”.

As for `O=C[C@H](O)[C@@H](O)[C@H](O)CO`, the carcinogen call (Species: RAT, Strain/Sex: FISCHER 344/MALE, FEMALE (50/GROUP), Route: DIET, Dose: 0, 2.5, 5% IN DIET FOR 104 WKS (STUDY DURATION: 104 WKS), Dose: 0, 2.5, 5% IN DIET FOR 104 WKS (STUDY DURATION: 104 WKS)) is “inactive; negative”.

Take `CC(Cl)CCCC(Cl)CCCC(Cl)CCCC(Cl)CCCC(Cl)CCCC(Cl)CCCl` (configuration not stated): the carcinogen call (Species: MOUSE, Strain/Sex: B6C3F1/FEMALE, Route: GAVAGE, Dose: 0, 2500, 5000 MG/KG IN CORN OIL 5 D/WK FOR 103 WK (STUDY DURATION: 103 WK), Dose: 0, 2500, 5000 MG/KG IN CORN OIL 5 D/WK FOR 103 WK (STUDY DURATION: 103 WK), Tumor Site: Type of Lesion: LIVER: HEPATOCELLULAR ADENOMA, HEPATOCELLULAR CARCINOMA) is on record as “equivocal”; the carcinogen call (Species: MOUSE, Strain/Sex: B6C3F1/MALE, Route: GAVAGE, Dose: 0, 2500, 5000 MG/KG IN CORN OIL 5 D/WK FOR 103 WK (STUDY DURATION: 103 WK), Dose: 0, 2500, 5000 MG/KG IN CORN OIL 5 D/WK FOR 103 WK (STUDY DURATION: 103 WK), Tumor Site: Type of Lesion: HEMATOPOIETIC SYSTEM: MALIGNANT LYMPHOMA) was “active; positive”; the carcinogen call (Species: RAT, Strain/Sex: F344/FEMALE, Route: GAVAGE, Dose: 0, 100, 300, 900 MG/KG IN CORN OIL 5 D/WK FOR 103 WK (STUDY DURATION: 103 WK), Dose: 0, 100, 300, 900 MG/KG IN CORN OIL 5 D/WK FOR 103 WK (STUDY DURATION: 103 WK), Tumor Site: Type of Lesion: ADRENAL GLAND: MEDULLARY PHEOCHROMOCYTOMA) is given as “equivocal”; the carcinogen call (Species: RAT, Strain/Sex: F344/MALE, Route: GAVAGE, Dose: 0, 1875, 3750 MG/KG IN CORN OIL 5 D/WK FOR 103 WK (STUDY DURATION: 103 WK), Dose: 0, 1875, 3750 MG/KG IN CORN OIL 5 D/WK FOR 103 WK (STUDY DURATION: 103 WK)) is “inactive; negative”.

Take `CCCCCCC(=O)O[C@H]1CC[C@H]2[C@@H]3CCC4=CC(=O)CC[C@]4(C)[C@H]3CC[C@]12C`: the carcinogen call by setting is: (Species: RAT, Strain/Sex: WISTAR/FEMALE, Route: INTRAMUSCULAR, Dose: 0, 12.5 MG 1/WK FOR 24 WK (STUDY DURATION: 24 WK), Tumor Site: Type of Lesion: BLADDER: PAPILLOMA OR CARCINOMA) “active; positive”; (Species: RAT, Strain/Sex: WISTAR/FEMALE, Route: INTRAMUSCULAR, Dose: 0, 12.5 MG 1/WK FOR 24 WK ADMINISTERED TO OOPHORECTOMIZED RATS (STUDY DURATION: 24 WK)) “inactive; negative”.

Turning to `OC(Cn1cncn1)(c1ccc(F)cc1)c1ccccc1F` (configuration not stated), the carcinogen call by setting is: (Species: Mouse, Strain/Sex: C57BL/10JfCD-1/Alpk (C57BL/10J)/Female (50/Group), Route: Oral, Dose: 0, 10, 50, 200 ppm (0; 1.5; 7.5; 30 mg/kg/day) of 93% flutriafol in diet for 2 yr, study duration 2 yr, Dose: 0, 10, 50, 200 ppm (0; 1.5; 7.5; 30 mg/kg/day) of 93% flutriafol in diet for 2 yr, study duration 2 yr) “inactive; negative”; (Species: Mouse, Strain/Sex: C57BL/10JfCD-1/Alpk (C57BL/10J)/Male (50/Group), Route: Oral, Dose: 0, 10, 50, 200 ppm (0; 1.5; 7.5; 30 mg/kg/day) of 93% flutriafol in diet for 2 yr, study duration 2 yr, Dose: 0, 10, 50, 200 ppm (0; 1.5; 7.5; 30 mg/kg/day) of 93% flutriafol in diet for 2 yr, study duration 2 yr) “inactive; negative”; (Species: Rat, Strain/Sex: Alpk:AP/Female (52/Group), Route: Oral, Dose: 0, 20, 200, 2000 ppm (0; 1; 10; 100 mg/kg/day) of 93% flutriafol in diet for 104 wk, study duration 104 wk, Dose: 0, 20, 200, 2000 ppm (0; 1; 10; 100 mg/kg/day) of 93% flutriafol in diet for 104 wk, study duration 104 wk) “inactive; negative”; (Species: Rat, Strain/Sex: Alpk:AP/Male (52/Group), Route: Oral, Dose: 0, 20, 200, 2000 ppm (0; 1; 10; 100 mg/kg/day) of 93% flutriafol in diet for 104 wk, study duration 104 wk, Dose: 0, 20, 200, 2000 ppm (0; 1; 10; 100 mg/kg/day) of 93% flutriafol in diet for 104 wk, study duration 104 wk) “inactive; negative”.

On to `O=C1c2ccccc2C(=O)c2c(O)cccc21`, for which the carcinogen call (Species: RAT, Strain/Sex: ACI/N/MALE, Route: ORAL, Dose: 0, 1% IN BASAL DIET FOR DURATION OF STUDY (STUDY DURATION: 480 D), Tumor Site: Type of Lesion: CECUM: ADENOMA, ADENOCARCINOMA, COLON: ADENOMA, ADENOCARCINOMA, LIVER: TUMOR, STOMACH: TUMOR, Tumor Site: Type of Lesion: CECUM: ADENOMA, ADENOCARCINOMA, COLON: ADENOMA, ADENOCARCINOMA, LIVER: TUMOR, STOMACH: TUMOR) was “active; positive”.

As to `COc1nn(CSP(=S)(OC)OC)c(=O)s1`, the carcinogen call was “inactive; negative” (Species: DOG, Strain/Sex: BEAGLE/FEMALE, Route: ORAL, Dose: 0, 0.5, 2, 4, 40, 140 PPM IN DIET FOR 1 YR (STUDY DURATION: 1 YR), Dose: 0, 0.5, 2, 4, 40, 140 PPM IN DIET FOR 1 YR (STUDY DURATION: 1 YR)) and “inactive; negative” (Species: DOG, Strain/Sex: BEAGLE/MALE, Route: ORAL, Dose: 0, 0.5, 2, 4, 40, 140 PPM IN DIET FOR 1 YR (STUDY DURATION: 1 YR), Dose: 0, 0.5, 2, 4, 40, 140 PPM IN DIET FOR 1 YR (STUDY DURATION: 1 YR)).

With `Cn1cc(-c2ccccc2)c(=O)c(-c2cccc(C(F)(F)F)c2)c1`, the carcinogen call is “inactive; negative. (possible increased incidence of skin fibrosarcomas in high dose femal” (Species: Mouse, Strain/Sex: ICR/Female (60?/Group), Route: Oral, Dose: 0, 33, 100, 330 ppm (0; 4.0; 12.3; 34.5 mg/kg/day) of 97.2-97.8% fluridone in diet for 2 yr, study duration 2 yr, Dose: 0, 33, 100, 330 ppm (0; 4.0; 12.3; 34.5 mg/kg/day) of 97.2-97.8% fluridone in diet for 2 yr, study duration 2 yr); “inactive; negative” (Species: Mouse, Strain/Sex: ICR/Male (60?/Group), Route: Oral, Dose: 0, 33, 100, 330 ppm (0; 3.5; 10.9; 30.7 mg/kg/day) of 97.2-97.8% fluridone in diet for 2 yr, study duration 2 yr, Dose: 0, 33, 100, 330 ppm (0; 3.5; 10.9; 30.7 mg/kg/day) of 97.2-97.8% fluridone in diet for 2 yr, study duration 2 yr); “inactive; negative” (Species: Rat, Strain/Sex: Fischer 344/Female (60/Group), Route: Oral, Dose: 0, 200, 650, 2000 ppm of 97.2-97.8% fluridone in diet for 2 yr, study duration 2 yr, Dose: 0, 200, 650, 2000 ppm of 97.2-97.8% fluridone in diet for 2 yr, study duration 2 yr); “inactive; negative” (Species: Rat, Strain/Sex: Fischer 344/Male (60/Group), Route: Oral, Dose: 0, 200, 650, 2000 ppm of 97.2-97.8% fluridone in diet for 2 yr, study duration 2 yr, Dose: 0, 200, 650, 2000 ppm of 97.2-97.8% fluridone in diet for 2 yr, study duration 2 yr).

On to `CCCCCCCC/C=C\CCCCCCCC(=O)O`, for which the carcinogen call (Species: MOUSE, Strain/Sex: B6C3F1/FEMALE, Route: ORAL, Dose: 0, 0.25, 1.0% IN DRINKING WATER FOR 96 WK (STUDY DURATION: 104 WK), Dose: 0, 0.25, 1.0% IN DRINKING WATER FOR 96 WK (STUDY DURATION: 104 WK)) was “inactive; negative”; the carcinogen call (Species: MOUSE, Strain/Sex: B6C3F1/MALE, Route: ORAL, Dose: 0, 0.25, 1.0% IN DRINKING WATER FOR 96 WK (STUDY DURATION: 104 WK), Dose: 0, 0.25, 1.0% IN DRINKING WATER FOR 96 WK (STUDY DURATION: 104 WK)) was “inactive; negative”; the carcinogen call (Species: RAT, Strain/Sex: F344/FEMALE, Route: ORAL, Dose: 0, 2.5, 5% IN DRINKING WATER FOR 108 WK (STUDY DURATION: 2 YR), Dose: 0, 2.5, 5% IN DRINKING WATER FOR 108 WK (STUDY DURATION: 2 YR)) is “inactive; negative”; the carcinogen call (Species: RAT, Strain/Sex: F344/MALE, Route: ORAL, Dose: 0, 2.5, 5% IN DRINKING WATER FOR 108 WK (STUDY DURATION: 2 YR), Dose: 0, 2.5, 5% IN DRINKING WATER FOR 108 WK (STUDY DURATION: 2 YR)) is “inactive; negative”.

In the case of `CNCCC(Oc1ccc(C(F)(F)F)cc1)c1ccccc1` (configuration not stated), the carcinogen call is, setting by setting: (Species: MOUSE, Strain/Sex: B6C3F1/FEMALE, Route: ORAL, Dose: 0, 0.001, 0.004, 0.01% IN DIET FOR 24 MO (STUDY DURATION: 24 MO), Dose: 0, 0.001, 0.004, 0.01% IN DIET FOR 24 MO (STUDY DURATION: 24 MO)) “inactive; negative”; (Species: MOUSE, Strain/Sex: B6C3F1/MALE, Route: ORAL, Dose: 0, 0.001, 0.004, 0.01% IN DIET FOR 24 MO (STUDY DURATION: 24 MO), Dose: 0, 0.001, 0.004, 0.01% IN DIET FOR 24 MO (STUDY DURATION: 24 MO)) “inactive; negative”; (Species: RAT, Strain/Sex: F344/FEMALE, Route: ORAL, Dose: 0, 0.001, 0.0045, 0.02% IN DIET FOR 24 MO (STUDY DURATION: 24 MO), Dose: 0, 0.001, 0.0045, 0.02% IN DIET FOR 24 MO (STUDY DURATION: 24 MO)) “inactive; negative”; (Species: RAT, Strain/Sex: F344/MALE, Route: ORAL, Dose: 0, 0.001, 0.0045, 0.02% IN DIET FOR 24 MO (STUDY DURATION: 24 MO), Dose: 0, 0.001, 0.0045, 0.02% IN DIET FOR 24 MO (STUDY DURATION: 24 MO)) “inactive; negative”.
